Read-outs that look alike come from different tables or passages of the source. One block for each compound: values may come before it.
What was measured:
Class I ADH [1] = test: Inhibition of Class I ADH; assay type: biochemical, human; settings: for Class I ADH activity abolished: 0.2 mM inhibitor
Protocol: (§1) The linear increase of fluorescence was then recorded for 1-10 minutes, until 0.03-1 μM of substrate was consumed. Larger substrate consumption was not found to be desirable (described in subpart (c) below). After this period the instrument sensitivity setting was reduced 10-30 fold, the signal compensated once again by zero suppression (see part 6 above), and 60 μl of 200-400 μM product (e.g., product IB or IIB) was added to provide an internal standard. The added product fluorescence intensity was then measured Fluorescence measurements were optimized for samples with low activity (<1 nM/minute). For samples with higher activity, repeat measurements were made with the serum volume reduced from 60 μl to 10 μl. Rates measured in the presence of the 0.2 mM ADH inhibitors. 4-MeP or 4-PeP, were made by adding 50 μl of 12 mM inhibitor to the cuvette prior to the assay buffer, and the reaction was carried out as above.
(§2) Aldehyde reduction and 4-MeP inhibition are near optimal at pH 7.6 which was adopted for the study of serum samples.
(§3) The values for these constants were determined with purified Class II ADH or a mixture of purified Class I isozymes, under the fluorometric assay conditions described above in Example 1.

β1 β1 ADH (Class I) = test: Inhibition of β1β1 (ββ) ADH; assay type: biochemical, human
Protocol: as §1, §2

β2 β2 ADH (Class I) = biological target: T1, β2 β2 ADH (Class I) (Homo sapiens, UniProt P00325); test: Inhibition of β2β2 ADH; assay type: biochemical; settings: 0.2 mM 4-MeP
T1 construct: beta2 allele (ADH1B*2)
T1 sequence (P00325 2-375): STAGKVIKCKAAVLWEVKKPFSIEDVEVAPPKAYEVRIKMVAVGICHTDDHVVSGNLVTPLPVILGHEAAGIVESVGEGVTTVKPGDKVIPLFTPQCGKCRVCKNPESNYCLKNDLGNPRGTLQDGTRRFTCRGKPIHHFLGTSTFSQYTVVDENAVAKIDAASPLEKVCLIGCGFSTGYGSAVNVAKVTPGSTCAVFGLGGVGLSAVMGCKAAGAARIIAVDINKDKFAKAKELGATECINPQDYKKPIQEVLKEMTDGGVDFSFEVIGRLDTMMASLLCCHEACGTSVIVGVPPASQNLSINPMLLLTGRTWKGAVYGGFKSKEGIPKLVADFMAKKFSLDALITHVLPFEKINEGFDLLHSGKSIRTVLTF
Protocol: as §1, §2

[2] = biological target: T2, ADH activity in human serum (Homo sapiens, UniProt P08319); test: Inhibition of ADH activity in human sera; assay type: biochemical; settings: 17 healthy volunteers
T2 construct: from tissue; host or cells: human serum of patients and volunteers
T2 sequence (P08319 whole entry): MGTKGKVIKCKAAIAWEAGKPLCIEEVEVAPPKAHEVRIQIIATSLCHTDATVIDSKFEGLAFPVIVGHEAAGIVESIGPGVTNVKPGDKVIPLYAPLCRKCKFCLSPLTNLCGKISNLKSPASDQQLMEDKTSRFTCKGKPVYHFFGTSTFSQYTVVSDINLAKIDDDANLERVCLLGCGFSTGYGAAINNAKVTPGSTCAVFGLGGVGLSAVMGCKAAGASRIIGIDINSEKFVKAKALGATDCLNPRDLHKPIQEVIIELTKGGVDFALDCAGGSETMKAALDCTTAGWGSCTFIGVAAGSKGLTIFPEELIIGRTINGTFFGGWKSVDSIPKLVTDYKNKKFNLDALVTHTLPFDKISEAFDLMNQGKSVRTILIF
Protocol: as §1
(§4) The activities of a large group of serum samples were further examined for inhibition by 4-MeP and 4-PeP, both at 0.2 mM, a concentration that abolishes 95-98% of the Class I and Class II ADH activity as shown in Table IV above. […] In contrast, 4-PeP inhibited activity toward IA by greater than […] and IIA by more than 90% in virtually all samples examined (FIG. 8C). The total number of samples examined was 83 for FIG. 8A, 105 for FIG. 8B, and 44 for FIG. 8C.
(§5) Sera whose ADH activity was increased beyond those seen normally were selected based on the modified NDMA assay as described in part 7 of Example 1. In approximately 3% of several hundred random hospital patients tested, elevations in ADH activity were observed using the modified NDMA assay described in part 7 of Example 1. These sera with elevated levels (>2 NDMA mU/ml) were then tested by the fluorometric assay described in part 8 of Example 1 using IA as substrate. Class I ADH activity was detected in nearly all of those classified as having elevated ADH levels by the NDMA criterion. The fluorescent reaction product was analyzed and confirmed to be the alcohol ADH product IB. The observed reaction was inhibited >95% by 3 mM 4-MeP; this confirmed that the activity observed was due primarily to Class I ADH. The rate of reduction of IA was also diminished by the addition of high concentrations (>>Km) of typical ADH substrates, e.g., 0.5 mM benzaldehyde or butyraldehyde, presumably due to competition. […] The optimal dilution for routine measurements was approximately 50-fold.

[3] = test system: ADH activity in human serum; test: Inhibition of ADH activity in human sera; assay type: biochemical; settings: for effect on rate of reduction of IA in sera with elevated ADH: 0.5 mM
Protocol: as §1, §4, §5

Class II ADH [4] = biological target: T3, Class II ADH (Homo sapiens, UniProt P08319); test: Inhibition of Class II ADH; assay type: biochemical; parameters: was used to purify Class II ADH from human livers; from tissue; host or cells: human liver
T3 sequence (P08319 2-380 limits assumed): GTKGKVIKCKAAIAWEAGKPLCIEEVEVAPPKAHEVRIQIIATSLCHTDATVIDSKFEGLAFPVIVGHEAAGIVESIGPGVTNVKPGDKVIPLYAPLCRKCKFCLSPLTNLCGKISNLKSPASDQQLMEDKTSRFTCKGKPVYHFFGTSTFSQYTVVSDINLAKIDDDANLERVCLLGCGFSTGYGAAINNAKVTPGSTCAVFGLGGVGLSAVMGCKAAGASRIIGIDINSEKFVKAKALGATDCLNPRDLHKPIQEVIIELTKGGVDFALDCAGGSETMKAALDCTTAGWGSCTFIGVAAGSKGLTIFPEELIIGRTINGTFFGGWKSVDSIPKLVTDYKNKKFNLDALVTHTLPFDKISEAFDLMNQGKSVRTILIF
Protocol: as §1, §2, §3

Class III ADH = biological target: T4, Class III ADH (Homo sapiens, UniProt P11766); test: Inhibition of Class III ADH; assay type: biochemical
T4 construct: Adult human livers were obtained at autopsy; from tissue; host or cells: human liver obtained at autopsy
T4 sequence (P11766 2-374 limits assumed): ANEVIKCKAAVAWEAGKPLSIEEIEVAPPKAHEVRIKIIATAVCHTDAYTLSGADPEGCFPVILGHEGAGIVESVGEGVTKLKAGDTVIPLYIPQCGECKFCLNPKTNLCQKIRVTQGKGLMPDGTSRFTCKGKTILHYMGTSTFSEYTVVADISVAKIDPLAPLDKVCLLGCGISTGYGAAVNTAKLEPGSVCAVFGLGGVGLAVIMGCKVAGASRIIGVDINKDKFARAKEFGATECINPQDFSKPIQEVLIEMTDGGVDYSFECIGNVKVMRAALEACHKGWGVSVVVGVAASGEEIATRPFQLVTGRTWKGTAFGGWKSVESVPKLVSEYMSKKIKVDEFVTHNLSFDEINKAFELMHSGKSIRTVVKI
Protocol: With a high Km value of >0.5 mM, substrate IIA is completely insensitive for Class III ADH. Because Class III ADH has greater hydrophobic selectivity than Classes I and II ADH, naphthaldehydes and quinoline aldehydes which have aliphatic side chains may provide adequate sensitivity for measuring the amount of Class III ADH in serum. In addition because of its greater hydrophobic selectivity, inhibitor compounds such as 4-alkylpyrazoles having aliphatic side chains of 5 carbons (e.g., 4-PeP) or greater may provide, under certain conditions and at certain concentrations, adequate selectivity for measuring Class III ADH in the presence of Classes I and II. […] At 100 μM 4-PeP, the values for inhibition are: Classes I and II, >90%; Class III <10%. Thus, under certain conditions 4-PeP is clearly useful as a selective inhibitor of Class I and II activities, leaving >90% of Class III activity intact and measurable.

Class I ADH [5] = test: Inhibition of Class I ADH; assay type: biochemical, human
[6] = Spectral parameters for absorption and fluorescence of ADH substrates and products; assay type: physicochemical; settings: for Absorption εmax / Absorption λmax / Fluorescence .phi. (quantum yield) / Fluorescence λmax: Mes buffer (45 mM), pH 7.0
Protocol: The spectral parameters for 4-methoxy-1-naphthaldehyde (IA), 6-methoxy-2-naphthaldehyde (IIA) and their reduction products (IB and IIB, respectively) are shown in Table I.
Ultraviolet absorption spectra were measured on a Cary 219 or Hewlett-Packard 8451 spectrophotometer. Fluorescence measurements were made in a Perkin Elmer MPF3 spectrofluorometer, equipped with an Osram XBO 150 Watt Xenon lamp, an R446 photomultiplier, and thermostatted cell holder through which water was passed from a Poly-Temp circulator with the following spectrometer settings: excitation wavelength 316 nm. bandwidth 8 nm for both substrate IA and IIA; emission wavelength. 370 nm for substrate IA and 360 nm for substrate IIA, emission bandwidth 24 nm. Changes in fluorescence as a result of oxidation or reduction of the substrate was then measured in the ratio mode. Generally, for fluorometric reactions (see part 8 below). a sensitivity setting of 3 was used with compensation of fluorescence background by the zero suppression control of the instrument.
Aldehyde reduction was monitored by following the decrease of absorption at 340 nm in 40 mM Mes buffer, pH 7.1. in the presence of saturating NADH, 50 μM for Class I and 100 μM for Class II. […] Initial reaction rates were measured and kinetic parameters determined by conventional procedures as described by Segel, 1975, Enzyme Kinetics, pp. 591-597, Wiley, N.Y.

[7] = Stability of substrates and product solutions; assay type: physicochemical; settings: 200-400 μM, water with <5% ethanol
Protocol: The dilute solutions (300 μM) were prepared by diluting 1 ml of the stock solution to 10 ml with water.
Concentrations were determined spectrophotometrically using a molar absorptivity of 5700 M^-1 cm^-1 at 296 nm for IB and 1270 M^-1 cm^-1 at 330 nm for IIB.

[8] = Fluorescence quenching of alcohol products in 50-fold diluted serum; assay type: physicochemical, human; settings: 50-fold dilution of serum
From the text: Human serum is known to fluoresce over a broad spectral region (Wolfbeis et al., 1985. Anal. Chim. Acta. 167:203-315); the instrumental settings should therefore be chosen to optimize the signal/background noise ratio. […] A 50-fold dilution of serum minimizes interference and maximizes sensitivity. At this dilution, alcohol product IB is only quenched 15% while IIB is quenched 5%. […] The cause of this background fluorescence is unknown

Class II ADH [9] = biological target: T3, Class II ADH; settings: Class II versus other ADH isozymes; cited from earlier work
[10] = 0.2 mM inhibitor, read-out: Class II ADH activity abolished
[11] = 1 mM 4-PeP, pH 10, 0.1M glycine buffer

Absorption εmax [6]: 1,250 M^-1 cm^-1
Absorption λmax [6]: 329 nm
Fluorescence .phi. (quantum yield) [6]: 0.26
Fluorescence λmax [6]: 355 nm
molar absorptivity ([6]; at 330 nm): 1270 M⁻¹ cm⁻¹
stability of product solutions [7]: stable for up to a week
fluorescence quenching [8]: 5%
Compound: COc1ccc2cc(CO)ccc2c1 [IIB, 6-methoxy-2-naphthalenemethanol]

Absorption εmax [6]: 5,400 M^-1 cm^-1
Absorption λmax [6]: 297 nm
Fluorescence .phi. (quantum yield) [6]: 0.36
Fluorescence λmax [6]: 370 nm
molar absorptivity ([6]; at 296 nm): 5700 M⁻¹ cm⁻¹
stability of product solutions [7]: stable for up to a week
fluorescence quenching [8]: 15%
Compound: COc1ccc(CO)c2ccccc12 [IB, 4-methoxy-1-naphthalenemethanol]

The remaining lines, values behind:

Compound: Cc1cn[nH]c1 [4-MeP, 4-Methylpyrazole]
inhibition of all Class I isozymes (Class I ADH [1]; 0.2 mM 4-MeP, 15 μM IA or IIA, pH 7.6): more than 90%
4-MeP Inhibition (Class I ADH [1]; 0.2 mM 4-MeP, substrate IA): 98%
b: Class I activity fraction retained (Class I ADH [1]; 0.2 mM 4-MeP, substrate IA): 0.025
4-MeP Inhibition (Class I ADH [1]; 0.2 mM 4-MeP, substrate IIA, average for Class I except ββ): 92%
Class I ADH activity abolished (Class I ADH [1]): 95-98%
enhancement of assay specificity for Class I and II isozymes with the two substrates (Class I ADH [1]; 4-MeP, Class I relative to Class II): about 100 fold
4-MeP Inhibition (β1 β1 ADH (Class I); 0.2 mM 4-MeP, substrate IA): ~ 95%
4-MeP Inhibition (β1 β1 ADH (Class I); 0.2 mM 4-MeP, substrate IIA): 98%
e: fraction of ββ-ADH activity uninhibited (β1 β1 ADH (Class I); 0.2 mM 4-MeP, substrate IIA): 0.025
inhibition of Class I ββ isozymes (β1 β1 ADH (Class I); words): inhibited readily
4-MeP Inhibition (β2 β2 ADH (Class I); substrate IA, nm = not measurable): nm
inhibition at 200 µM (β2 β2 ADH (Class I); substrate IIA): 97%
effect on activity towards IIA in normal sera ([2]; 4-MeP): insensitive
activity toward IIA remaining in sera ([3]; 0.2 mM 4-MeP, 105 samples): ≥ 70%
inhibition of IA activity in sera ([3]; 0.2 mM 4-MeP, majority of samples (83)): more than 90%
inhibition of IA reaction in sera with elevated ADH ([3]; 3 mM 4-MeP): > 95%
inhibition at 200 µM (Class II ADH [4]; 0.2 mM 4-MeP, 15 μM IA or IIA, pH 7.6, read-out: inhibition of Class II ADH): 11%
inhibition at 200 µM (Class II ADH [4]; 0.2 mM 4-MeP, substrate IA, read-out: 4-MeP Inhibition): 11%
inhibition at 200 µM (Class II ADH [4]; 0.2 mM 4-MeP, substrate IIA, as fraction, read-out: c: degree of inhibition of Class II ADH): 11%
inhibition at 200 µM (Class II ADH [4]; [10]): 95 to 98%

Compound: CCCCCc1cn[nH]c1 [4-PeP, 4-Pentylpyrazole]
Class I ADH activity abolished (Class I ADH [1]): 95-98%
inhibition of Class I activity (Class I ADH [1]; 4-PeP, substrate IA): greater than 99%
inhibition at 100 µM (Class III ADH; 100 μM 4-PeP): < 10%
inhibition at 1000 µM (Class III ADH; [11]): 60%
activity at 100 µM (Class III ADH; 4-PeP, under certain conditions, read-out: Class III activity left intact and measurable): > 90%
effect on activity towards IIA in normal sera ([2]; 0.2 mM 4-PeP): abolished
inhibition of IIA activity in sera ([3]; 0.2 mM 4-PeP, virtually all samples (44)): more than 90%
inhibition (Class I ADH [5]; 100 μM 4-PeP): > 90%
inhibition of activity (Class I ADH [5]; [11]): > 99.99%
inhibition at 100 µM (Class II ADH [4]; 100 μM 4-PeP): > 90%
inhibition at 200 µM (Class II ADH [4]; [10]): 95 to 98%
inhibition at 1000 µM (Class II ADH [4]; [11]): > 100%
inhibition of Class II activity (Class II ADH [4]; 4-PeP, substrate IIA): more than 90%

Compound: CCCC=O [butyraldehyde]
effect on rate of reduction of IA in sera with elevated ADH [3]: diminished

Compound: O=Cc1ccccc1 [benzaldehyde]
effect on rate of reduction of IA in sera with elevated ADH [3]: diminished

Compound: CCO [ethanol]
Km for ethanol of Class II relative to other ADH isozymes (Class II ADH [9]): ≤ 100 times

Source: US5162203A, “Methods of measuring isozymes and isozyme classes of alcohol dehydrogenase” (President and Fellows of Harvard College, priority 1989, dated 1992)
